Read-outs that look alike come from different tables or passages of the source.
Legend:
P. aeruginosa T3SS [1] = target: T1, P. aeruginosa T3SS (Pseudomonas aeruginosa, UniProt P95434); test: T3SS-mediated secretion assay; format: cell-based; details: for potency increase in the β-lactamase secretion assay over the unoptimized compound: 37a vs 34o, 37b vs 34r
P. aeruginosa T3SS [2] = target: T1, P. aeruginosa T3SS; format: cell-based; details: for IC50: read-out: translocation IC50, CHO cells + P. aeruginosa PA99U, LDH release
P. aeruginosa T3SS [3] = details: read-out: translocation IC50; activity in translocation assays; cited from earlier work

CC[C@@H](Oc1ncc(Cl)cc1Cl)C(=O)NCc1ccc2sccc2c1 [Compound 37a, (R)-N-[(Benzothiophene-5-yl)methyl]-2-[(3,5-dichloropyridin-2-yl)oxy]butanamide]
potency increase in the β-lactamase secretion assay over the unoptimized compound (P. aeruginosa T3SS [1]): 6 fold

N-[(Benzimidazol-5-ylmethyl])-2-(2,4-dichlorophenoxy)propanamide [Compound 34q]
IC50 (P. aeruginosa T3SS [2]): 33 ± 8 µM

O=C(NN=Cc1cc(Br)cc(Br)c1O)c1ccc([N+](=O)[O-])cc1 [INP-007]
IC50 (P. aeruginosa T3SS [3]): 0.8 µM

N-(Benzothiophene-5-yl)-2-(2,4-dichlorophenoxy)propanamide [Compound 34o]
IC50 (P. aeruginosa T3SS [1]; read-out: secretion IC50): 6 ± 1.6 µM | IC50 (P. aeruginosa T3SS [2]): 5.3 ± 3.7 µM

CC[C@@H](Oc1ncc(Cl)cc1Cl)C(=O)NCc1ccc2[nH]ccc2c1 [Compound 37b, (R)-N-[(Indol-5-yl)methyl]-2-[(3,5-dichloropyridin-2-yl)oxy]butanamide]
potency increase in the β-lactamase secretion assay over the unoptimized compound (P. aeruginosa T3SS [1]): 2.6 fold | improvement in the translocation assay over the unoptimized compound (P. aeruginosa T3SS [2]; 37b vs 34r): 2.5 fold
